Test results published in patent US20070207104A1, “Antimicrobial esters” (priority 2006, published 2007).
Read-outs that look alike come from different tables or passages of the source.

Columns and labels:
[1] = test system: Gram-negative bacteria: Escherichia coli and Pseudomonas aeruginosa; assay: Minimal inhibitory concentration, agar dilution (Mueller-Hinton), Gram-negative bacteria; format: cell-based; conditions: for Minimum Inhibitory Concentration (MIC): Gram Negative Bacteria Escherichia coli, Pseudomonas aeruginosa; for visible growth on agar plates: Gram Negative Organisms, concentration 0.3 %
Method: (§1) The minimal inhibitory concentration of the composition was determined based on methods as described in the United States Pharmacopiea, National Formulary (“USP, NF”), NF 18, 1995, Microbial Assays and Journal of Applied Microbiology 89(2): 275-279 by testing microorganisms for their ability to produce visible growth on a series of agar plates containing dilutions of the composition. Mueller-Hinton is the agar medium used in these studies. Dilutions of materials to be tested were made directly into warm molten agar as described below to achieve the final concentration range (0-6%) shown in the Tables below.
(§2) Agar was prepared as recommended by the manufacturer. Sterilized agar was allowed to cool to 50° C. in a water bath and dispensing an appropriate amount into sterile containers. The agent being tested was added to the agar and thoroughly mixed. Plates were then poured and allowed to solidify at room temperature. All plates were used immediately and not stored.
(§3) Broth cultures (24 hours) were adjusted photometrically to give 10^7 CFU/ml (colony forming units/ml) and the plates were inoculated within 30 minutes of standardizing the inoculum. A standard inoculating loop was used to deliver and spread the inoculum on the plates. Plates were allowed to dry at room temperature before inverting and incubation. Bacterial plates were incubated at 35° C. for 48 hours while fungal plates were incubated at 25° C. for 72 hours. All plates were visually inspected immediately following incubation and the results recorded.
(§4) The organisms tested were the following: Gram-positive bacteria: Staphylococcus aureus, and Bacillus subtilis; Gram-negative bacteria: Escherichia coli and Pseudomonas aeruginosa; and Fungi: Candida albicans, Asperillus niger and Penicillium notatum.
(§5) The effects of the structure of the polyhydric alcohol, the structure of the carboxylic acid and the extent of alkoxylation on antimicrobial activity were determined using the MIC assay as described in Example 1. The results below are expressed as the concentration (%) of agent corresponding to the MIC for each group of organisms tested.

[2] = test system: Gram-positive bacteria: Staphylococcus aureus, and Bacillus subtilis; assay: Minimal inhibitory concentration, agar dilution (Mueller-Hinton), Gram-positive bacteria; format: cell-based; conditions: for Minimum Inhibitory Concentration (MIC): Gram Positive Bacteria Staphylococcus aureus, Staphlyococcus epidermidis, Bacillus subtilis; for visible growth on agar plates: Gram Positive Organisms, concentration 0.3 %
Method: Mueller-Hinton is the agar medium used in these studies. Dilutions of materials to be tested were made directly into warm molten agar as described below to achieve the final concentration range (0-6%) shown in the Tables below.
as §2
as §3, with “A” for “Broth cultures (24 hours) were adjusted photometrically to give 10^7 CFU/ml (colony forming units/ml) and the plates were inoculated within 30 minutes of standardizing the inoculum. A”
as §4
The results below are expressed as the concentration (%) of agent corresponding to the MIC for each group of organisms tested.

[3] = test system: Fungi: Candida albicans, Asperillus niger and Penicillium notatum; assay: Minimal inhibitory concentration, agar dilution (Mueller-Hinton), fungi; format: cell-based
Method: as §1, §2, §3, §4, §5

[4] = Solubility in water / oil; format: physicochemical
[5] = HLB value; format: physicochemical
[6] = Safety testing: neat material on forearm of human volunteers under occlusive conditions for 48 hours; format: in vivo; parameters: key to dermal response score (6-point scale): 0=No evidence of any effect; +=Barely perceptible (Minimal, faint, uniform or spotty erythema); 1=Mild (Pink, uniform erythema covering most of the contact site); 2=Moderate (Pink-red erythema uniform in the entire contact site); 3=Marked (Bright re erythema with/without petechiae or papules); 4=Severe (Deep red erythema with/without vesiculation or weeping)
Method: The safety of G-18-O was tested using the neat (undiluted) material applied to the forearm of 51 human volunteers under occlusive conditions for 48 hours. These conditions are particularly aggressive, especially when compared with those in the prior art, where data on safety, if disclosed at all, is generally anecdotal using low concentrations of the agent. The dermal responses for G-18-O were scored by expert evaluators under clinical conditions according to the following 6-point scale: • 0=No evidence of any effect; • +=Barely perceptible (Minimal, faint, uniform or spotty erythema); • 1=Mild (Pink, uniform erythema covering most of the contact site); • 2=Moderate (Pink-red erythema uniform in the entire contact site); • 3=Marked (Bright re erythema with/without petechiae or papules); and • 4=Severe (Deep red erythema with/without vesiculation or weeping).

[7] = test system: Gram-positive and Gram-negative organisms as well as fungi; assay: Antimicrobial activity in the MIC assay, all groups of organisms tested; format: cell-based
Method: as §1, §2
as §3, with “recorded. […]” for “recorded.”
as §5

Compound | Minimum Inhibitory Concentration (MIC) [1] | Minimum Inhibitory Concentration (MIC) [2] | Minimum Inhibitory Concentration (MIC) [3] | also measured
Glycereth-18 Pelargonate | >=6% | >=6% | 1.5% | –
CCCCCCCC(=O)OCC(O)CO (centres unmarked) [Glyceryl Caprylate, reference compound] | – | – | – | visible growth on agar plates [1]: 50%; oil solubility [4]: substantially oil soluble; visible growth on agar plates [2]: 50%
Glycereth-18 Benzoate | 3% | 3% | >=6% | –
Glycereth-20 Ethylhexanoate | 3% | 3% | 3% | –
Glycereth-7 Ethylhexanoate | 3% | 3% | 1.5% | –
Glycereth-18 Ethylhexanoate [G-18-O] | 0.6% | 0.6% | 1.5% | HLB value [5]: greater than 10; visible growth on agar plates [1]: 50%; water solubility [4]: very water soluble; water solubility ([4]; listed as G-18-0): substantially water-soluble; water solubility ([4]; listed as Glycereth-18 ethylhexanoate): very water-soluble; visible growth on agar plates [2]: 50%; dermal response score (6-point scale) ([6]; forearm of 51 human volunteers, occlusive, all panelists): 0; skin irritation ([6]; intimate contact with skin, occlusive conditions): totally non-irritating; antimicrobial activity [7]: effective antimicrobial agent; antimicrobial activity ([7]; listed as G-18-0): essentially equal to that of glyceryl caprylate
Glycereth-40 Ethylhexanoate | 3% | 3% | 1.5% | –
Propylene Glycol-18 Ethylhexanoate | >=6% | >=6% | 1.5% | –
Glycereth-18 [reference compound] | >=6% | >=6% | >=6% | antimicrobial activity [7]: no activity
Glycereth-18 Laurate | 0.6% | 0.6% | >=6% | –
